# Experimental data taken from ChEMBL document CHEMBL4229536, “In vitro and in vivo pharmacokinetic and pharmacodynamic study of MBRI-001, a deuterium-substituted plinabulin derivative as a potent anti-cancer agent” (Bioorg Med Chem, 2018).
# Assays:
# [1] = Drug uptake in Wistar rat spleen at 6 mg/kg, iv measured after 0.5 hrs; assay type: ADME, organism-based; settings: in vivo
# Mus musculus [2] = experiment: Toxicity in Balb/c mouse assessed as mortality at 20 mg/kg, iv administered three times in a day every 2 days for 15 consecutive days; assay type: organism-based; settings: in vivo, 48 h
# [3] = Drug uptake in Wistar rat lungs at 6 mg/kg, iv measured after 1 hr; assay type: ADME, organism-based, Lung; settings: in vivo
# [4] = Drug uptake in Wistar rat lungs at 6 mg/kg, iv measured after 4 hrs; assay type: ADME, organism-based, Lung; settings: in vivo
# [5] = Stability in rat liver microsomes at 50 uM after 210 mins in presence of NADPH by LC-MS/MS analysis; assay type: ADME, microsome; settings: liver microsomes, read-out: Stability
# [6] = Drug uptake in Wistar rat large intestine at 6 mg/kg, iv measured after 0.5 hrs; assay type: ADME, organism-based; settings: in vivo
# Mus musculus [7] = experiment: Toxicity in nude mouse xenografted with human NCI-H460 cells assessed as body weight at 9 mg/kg, iv administered once in every 2 days for 14 consecutive days (reference value: 20.6 +/- 1.5 g); assay type: organism-based; settings: in vivo, 48 h
# Mus musculus [8] = experiment: Toxicity in nude mouse xenografted with human NCI-H460 cells assessed as body weight at 6 mg/kg, iv administered once in every 2 days for 14 consecutive days (reference value: 20.6 +/- 1.5 g); assay type: organism-based; settings: in vivo, 48 h
# [9] = Drug uptake in Wistar rat pancreas at 6 mg/kg, iv measured after 4 hrs; assay type: ADME, organism-based; settings: in vivo
# Mus musculus [10] = experiment: Toxicity in nude mouse xenografted with human NCI-H460 cells assessed as death at 3 to 6 mg/kg, iv administered once in every 2 days for 14 consecutive days cotreated with 25 to 50 mg/kg gefitinib once daily for 14 consecutive days; assay type: organism-based; settings: in vivo, 48 h
# NCI-H460 = experiment: Antitumor activity against human NCI-H460 cells xenografted in nude mouse assessed as inhibition of tumor volume at 6 mg/kg, iv administered once in every 2 days for 14 consecutive days cotreated with 50 mg/kg gefitinib once daily for 14 consecutive days relative to control; assay type: functional
# [11] = Drug uptake in Wistar rat liver at 6 mg/kg, iv measured after 0.5 hrs; assay type: ADME, organism-based; settings: in vivo
# [12] = Drug excretion in Wistar rat feces at 4 mg/kg, iv measured after 36 hrs; assay type: ADME, organism-based; settings: faeces, read-out: Drug excretion
# [13] = Stability in rat plasma at 1 uM after 60 mins by LC-MS/MS analysis; assay type: ADME, cell-free; settings: read-out: Stability
# [14] = Drug excretion in Wistar rat feces at 4 mg/kg, iv measured after 24 hrs; assay type: ADME, organism-based; settings: faeces, read-out: Drug excretion
# [15] = Drug excretion in Wistar rat urine at 4 mg/kg, iv measured after 12 hrs; assay type: ADME, organism-based; settings: read-out: Drug excretion
# [16] = Drug uptake in Wistar rat large intestine at 6 mg/kg, iv measured after 8 hrs; assay type: ADME, organism-based; settings: in vivo
# [17] = Stability in rat liver microsomes at 50 uM after 60 mins in presence of NADPH by LC-MS/MS analysis; assay type: ADME, microsome; settings: read-out: Stability
# [18] = Stability in rat liver microsomes at 50 uM after 40 mins in presence of NADPH by LC-MS/MS analysis; assay type: ADME, microsome; settings: read-out: Stability
# [19] = Drug uptake in Wistar rat spleen at 6 mg/kg, iv measured after 4 hrs; assay type: ADME, organism-based; settings: in vivo
# [20] = Stability in rat liver microsomes at 50 uM after 270 mins in presence of NADPH by LC-MS/MS analysis; assay type: ADME, microsome; settings: 4.5 h
# [21] = Drug uptake in Wistar rat liver at 6 mg/kg, iv measured after 4 hrs; assay type: ADME, organism-based; settings: in vivo
# [22] = Stability in rat liver microsomes at 50 uM after 20 mins in presence of NADPH by LC-MS/MS analysis; assay type: ADME, microsome; settings: read-out: Stability
# [23] = Drug uptake in Wistar rat pancreas at 6 mg/kg, iv measured after 12 hrs; assay type: ADME, organism-based; settings: in vivo
# [24] = MRTlast in Wistar rat at 4 mg/kg, iv; assay type: ADME, organism-based; settings: in vivo
# [25] = Drug excretion in Wistar rat urine at 4 mg/kg, iv measured after 108 hrs; assay type: ADME, organism-based; settings: read-out: Drug excretion
# [26] = Drug uptake in Wistar rat kidney at 6 mg/kg, iv measured after 8 hrs; assay type: ADME, organism-based; settings: in vivo
# [27] = Stability in rat liver microsomes at 50 uM after 5 mins in presence of NADPH by LC-MS/MS analysis; assay type: ADME, microsome; settings: liver microsomes, read-out: Stability
# [28] = AUC (0 to infinity) in Wistar rat at 4 mg/kg, iv; assay type: ADME, organism-based; set-up: dose 4 mg/kg, time infinity, route intravenous; settings: in vivo
# [29] = Drug uptake in Wistar rat brain at 6 mg/kg, iv measured after 8 hrs; assay type: ADME, organism-based; settings: in vivo
# [30] = Drug uptake in Wistar rat kidney at 6 mg/kg, iv measured after 12 hrs; assay type: ADME, organism-based; settings: in vivo
# [31] = Drug uptake in Wistar rat heart at 6 mg/kg, iv measured after 1 hr; assay type: ADME, organism-based; settings: in vivo
# [32] = Drug excretion in Wistar rat urine at 4 mg/kg, iv measured after 8 hrs; assay type: ADME, organism-based; settings: read-out: Drug excretion
compound,measurement,setting,value
[2H]/C(c1nc[nH]c1C(C)(C)C)=c1/[nH]c(=O)/c(=C/c2ccccc2)[nH]c1=O,Drug uptake,[1],4808.8 ng/mL/g
same,Activity,Mus musculus [2],Toxic
same,Drug uptake,[3],158342.2 ng/mL/g
same,Drug uptake,[4],49038.9 ng/mL/g
same,"remaining at 3.5 h, 50 µM",[5],31.5%
same,Drug uptake,[6],1936.4 ng/mL/g
same,Activity,Mus musculus [7],19.9 g
same,Activity,Mus musculus [8],21.1 g
same,Drug uptake,[9],1366.3 ng/mL/g
same,Activity,Mus musculus [10],Non-Toxic
same,inhibition (INH),NCI-H460,67.8%
same,Drug uptake,[11],8281 ng/mL/g
same,dose excreted at 36 h,[12],5.85%
same,"remaining at 1 h, 1 µM",[13],94.3%
same,dose excreted at 24 h,[14],5.65%
same,dose excreted at 12 h,[15],0.14%
same,Drug uptake,[16],1188.5 ng/mL/g
same,"remaining at 1 h, 50 µM",[17],47.1%
same,"remaining at 40 min, 50 µM",[18],56.5%
same,Drug uptake,[19],1519.6 ng/mL/g
same,Stability,[20],35.33%
same,Drug uptake,[21],4220 ng/mL/g
same,"remaining at 20 min, 50 µM",[22],74.8%
same,Drug uptake,[23],68.2 ng/mL/g
same,MRT last,[24],1.76 h
same,dose excreted at 108 h,[25],0.67%
same,Drug uptake,[26],636.5 ng/mL/g
same,"remaining at 5 min, 50 µM",[27],84.8%
same,AUC(0-inf),[28],1330 ng·h/mL
same,Drug uptake,[29],144.8 ng/mL/g
same,Drug uptake,[30],175.1 ng/mL/g
same,Drug uptake,[31],3836.3 ng/mL/g
same,dose excreted at 8 h,[32],0.13%
